Results on one compound are retold here after US11312687B2, “7H-azulene [1,2,3-i,j] isoquinolin-7-one compound, single crystal and use thereof” (Hunan University of Chinese Medicine, priority 2017, dated 2022).

This test has as its system PC12 cells damaged by Aβ25-35. The experiment in a line: Protective effect on PC12 cells damaged by Aβ25-35 (MTT cell viability). The test is classed as cell-based, rat. An excerpt: Protective effect of 6-hydroxy-5,8-dimethoxy-7H-azulene [1,2,3-i,j] isoquinolin-7-one on PC12 cells damaged by Aβ25-35: cell seeding in the 96-well plate was the same as above, and the experiment was divided into 5 groups, 4 holes in each group.

SMILES strings stand for the structures. Like-named read-outs stand apart in the source and are kept apart here.

As to `COc1cc2ccnc3c2c(c1O)-c1c-3cccc(OC)c1=O` [6-hydroxy-5,8-dimethoxy-7H-azulene [1,2,3-i,j] isoquinolin-7-one], the viability at 0.5 µg/mL (Rattus norvegicus, PC-12, 0.5 ug·mL^-1 sample, 30 μmol/L Aβ25-35, 24 h, MTT, x ± s, n = 4) is 85.8 ± 1.6%. Further, the viability at 1 µg/mL is 103 ± 1.8% (Rattus norvegicus, PC-12, 1.0 ug·mL^-1 sample, 30 μmol/L Aβ25-35, 24 h, MTT, x ± s, n = 4, read-out: cell viability (%)) and more than 95% (Rattus norvegicus, PC-12, concentration of 1.0 μg·mL^-1, 30 μmol/L Aβ25-35, read-out: viability of PC12 damaged cells). In addition, the viability at 5 µg/mL (Rattus norvegicus, PC-12, 5.0 ug·mL^-1 sample, 30 μmol/L Aβ25-35, 24 h, MTT, x ± s, n = 4) amounted to 77.4 ± 3.8%. Also, the “cell viability compared to model group” value (three different concentrations (0.5, 1.0, 5.0 μg·mL^-1), P<0.01 vs model group) is “significantly increased cell viability”.
